Source: patent US20230051694A1, “POLYPEPTIDE FRAGMENT B (MP-B) AND USE THEREOF” (SHANGHAI LONGXIN BIOMEDICAL TECHNOLOGY CO., LTD., priority 2021, published 2023)

B1: THTVGSYFSVQNGYVGAFSQALGNSEYAMNSPLGSLDGRTTMYNLLGVKYLFAREDQ LKKQ (peptide, listed as Lactobacillus plantarum)
chain: THTVGSYFSVQNGYVGAFSQALGNSEYAMNSPLGSLDGRTTMYNLLGVKYLFAREDQLKKQ
notes: positive control

System: DSS-induced IBD in mice
Experiment: Intervention effect on DSS-induced acute IBD mouse model
Assay type: in vivo, Male C57BL6 mice
Conditions: DSS 2.5 wt % induced acute IBD mice, 50 μg/kg intragastric; for colonic histopathologic score / colon length: 7 days pre-administration then daily with DSS, x±SD; for colonic histopathologic score: HE staining; for colon length: in cm (unit assumed)
Experimental: The administration of a DSS solution with a specified concentration to mice can induce an acute IBD model characterized by diarrhea, hematochezia, ulcer, and granulocyte infiltration. Mice were randomly grouped according to body weights of the mice. 40 healthy male C57BL6 mice were divided into four groups each with 10 mice:
blank control group: the mice were each intragastrically administered with water every day at a volume of 0.4 mL/20 g;
model group: the mice were each intragastrically administered with a DSS aqueous solution of a mass fraction of 2.5 wt % consecutively for 7 days, where the DSS aqueous solution was freshly prepared and changed every day;
(§1) MIMP positive control group: the mice were each given a pre-administration process for one week, that is, the mice were each intragastrically administered with an MIMP solution of a mass fraction of 50 μg/kg for the first 7 days, and then from day 8, the mice were each intragastrically administered with a DSS aqueous solution of a mass fraction of 2.5 wt % (at a volume of 0.4 mL/20 g) and an MIMP solution of a mass fraction of 50 μg/kg (at a volume of 0.4 mL/20 g) every day; and
as §1, with “MP-B experimental” for “MIMP positive control”, “MP-B” for “MIMP”, “and” for “and then”, “day.” for “day; and”
The body weight changes of mice in each group were recorded every day to determine whether the acute IBD mouse model was successfully established.
A mouse colon between an anus end to an ileocecal end was integrally collected, and a length of the colon was measured; and the colon was dissected along a longitudinal axis, feces therein were rinsed off, and then the colon was stored in 4% paramethanol.
The colon sample stored in 4% paramethanol in step 1.2 was subjected to histopathological section, stained with hematoxylin-eosin (HE), and dehydrated, obtained sections were sealed and examined under an optical microscope, and the histopathological scoring was conducted by two blind examination operators:
Experimental data in the above experimental method were expressed as (x±SD), the GraphPad Prism (ver. 8.0, GraphPad Software Inc., San Diego, Calif., USA) was used to plot a chart, the SPSS Program (ver. 25.0, SPSS Inc., Chicago, Ill., USA) was used for statistical test, and one-way ANOVA or independent two-sample t-test were used for significance test when the normality and homogeneity of variances were met. It was assumed that α=0.05, and P<0.05 indicates a statistically significant difference.

Row | Molecule | colonic histopathological observation (HE staining micrographs) | colonic histopathologic score | colon length
1 | SPLGSLDGRETMYNLGGVKYLFARMDQLKKQ (SPLGSLDGRXTMYNLXGVKYLFARXDQLKKQ; Sequence is synthesized; (10)..(10) Xaa can be Arg, Phe, Glu, Thr, or absent; (16)..(16) Xaa can be Asn, Val, Leu, Gly, or absent; (25)..(25) Xaa can be Ser, Glu, Met, Arg, or absent) [MP-B] | no obvious inflammation | 1.4±0.6 | 8.0±0.5
2 | B1 | – | 3.1±0.2 | 7.6±0.5
